Assay results taken from article PMC9609801, “Nipecotic Acid Derivatives as Potent Agents against Neurodegeneration: A Preliminary Study” (Molecules, 2022).

Molecular target: T1, soybean lipoxygenase (lipoxygenase type I-B) (Glycine max, UniProt P08170)
T1 construct: gene LOX1.1
T1 sequence (P08170 1-839): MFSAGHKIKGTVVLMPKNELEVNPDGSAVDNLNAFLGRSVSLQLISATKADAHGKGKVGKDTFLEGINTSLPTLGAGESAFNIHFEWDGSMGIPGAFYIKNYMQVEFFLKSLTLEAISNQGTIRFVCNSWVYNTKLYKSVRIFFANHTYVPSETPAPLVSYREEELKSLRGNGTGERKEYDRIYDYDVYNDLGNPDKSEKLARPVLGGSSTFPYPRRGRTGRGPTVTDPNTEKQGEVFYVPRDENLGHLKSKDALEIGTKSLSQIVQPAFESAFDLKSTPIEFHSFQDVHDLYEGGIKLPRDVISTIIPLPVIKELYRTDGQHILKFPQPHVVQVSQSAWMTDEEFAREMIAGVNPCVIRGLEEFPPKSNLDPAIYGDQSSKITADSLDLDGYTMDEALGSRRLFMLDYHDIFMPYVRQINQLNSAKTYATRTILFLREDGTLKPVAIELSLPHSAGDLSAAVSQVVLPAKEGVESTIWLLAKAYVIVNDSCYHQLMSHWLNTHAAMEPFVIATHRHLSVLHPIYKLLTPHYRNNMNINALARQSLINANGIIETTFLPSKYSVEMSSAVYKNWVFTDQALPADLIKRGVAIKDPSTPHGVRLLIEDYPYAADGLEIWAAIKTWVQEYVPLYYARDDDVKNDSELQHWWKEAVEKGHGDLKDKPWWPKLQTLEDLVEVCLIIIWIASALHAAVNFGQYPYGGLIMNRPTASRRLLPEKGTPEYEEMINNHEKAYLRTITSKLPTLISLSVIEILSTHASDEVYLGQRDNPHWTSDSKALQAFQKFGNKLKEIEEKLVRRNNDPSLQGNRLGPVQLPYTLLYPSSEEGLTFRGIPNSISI
Test: linoleate oxidation at […] nm, % inhibition at […] μΜ
Format: biochemical
Settings: read-out: % Inhibition (LOX)

SMILES | inhibition at 100 µM [%]
CCOC(=O)C1CCCN(C(=O)c2cc(C(C)(C)C)c(O)c(C(C)(C)C)c2)C1 (centres unmarked) [compound 1, Ethyl 1-(3,5-di-tert-butyl-4-hydroxybenzoyl)piperidine-3-carboxylate] | 31
CCOC(=O)C1CCCN(C(=O)/C=C/c2cc(C(C)(C)C)c(O)c(C(C)(C)C)c2)C1 (centres unmarked) [compound 2, (E)-Ethyl 1-(3-(3,5-di-tert-butyl-4-hydroxyphenyl)acryloyl)piperidine-3-carboxylate] | 33
